Values joined by “and” are separate entries in the source; they are usually repeats but may differ in a detail not shown here. Equal entries are not always repeated. Where two headings read alike, the source gives them in different places.

The values below come from patent publication US20250281497A1, “FUSED AMINO PYRIMIDINE COMPOUNDS FOR TREATMENT OF SEIZURE DISORDERS” (Ovid Therapeutics Inc., priority 2024, published 2025).

Details of data set [1]: species or system mice. The note with it: in vivo.
Data set [2] in a line: PK studies, brain and plasma levels by LC-MS/MS. As to conditions: for concentration at 30 min: 25 mg/kg IV bolus, within 30 minutes. The format is in vivo, mice. As for the experimental part: PK studies. […] Plasma and brain samples were rapidly frozen on dry ice.
Drug accumulation in the brain was examined following SC injection (FIG. 4C; 50 mg/kg).

The next data set concerns the target T1, KCC2 (Homo sapiens, UniProt Q9H2X9).
T1 construct: expressed in transfected cells; host or cells: HEK-293 (ATCC CRL-1573)
T1 sequence (Q9H2X9 1-1116 isoform Q9H2X9-2): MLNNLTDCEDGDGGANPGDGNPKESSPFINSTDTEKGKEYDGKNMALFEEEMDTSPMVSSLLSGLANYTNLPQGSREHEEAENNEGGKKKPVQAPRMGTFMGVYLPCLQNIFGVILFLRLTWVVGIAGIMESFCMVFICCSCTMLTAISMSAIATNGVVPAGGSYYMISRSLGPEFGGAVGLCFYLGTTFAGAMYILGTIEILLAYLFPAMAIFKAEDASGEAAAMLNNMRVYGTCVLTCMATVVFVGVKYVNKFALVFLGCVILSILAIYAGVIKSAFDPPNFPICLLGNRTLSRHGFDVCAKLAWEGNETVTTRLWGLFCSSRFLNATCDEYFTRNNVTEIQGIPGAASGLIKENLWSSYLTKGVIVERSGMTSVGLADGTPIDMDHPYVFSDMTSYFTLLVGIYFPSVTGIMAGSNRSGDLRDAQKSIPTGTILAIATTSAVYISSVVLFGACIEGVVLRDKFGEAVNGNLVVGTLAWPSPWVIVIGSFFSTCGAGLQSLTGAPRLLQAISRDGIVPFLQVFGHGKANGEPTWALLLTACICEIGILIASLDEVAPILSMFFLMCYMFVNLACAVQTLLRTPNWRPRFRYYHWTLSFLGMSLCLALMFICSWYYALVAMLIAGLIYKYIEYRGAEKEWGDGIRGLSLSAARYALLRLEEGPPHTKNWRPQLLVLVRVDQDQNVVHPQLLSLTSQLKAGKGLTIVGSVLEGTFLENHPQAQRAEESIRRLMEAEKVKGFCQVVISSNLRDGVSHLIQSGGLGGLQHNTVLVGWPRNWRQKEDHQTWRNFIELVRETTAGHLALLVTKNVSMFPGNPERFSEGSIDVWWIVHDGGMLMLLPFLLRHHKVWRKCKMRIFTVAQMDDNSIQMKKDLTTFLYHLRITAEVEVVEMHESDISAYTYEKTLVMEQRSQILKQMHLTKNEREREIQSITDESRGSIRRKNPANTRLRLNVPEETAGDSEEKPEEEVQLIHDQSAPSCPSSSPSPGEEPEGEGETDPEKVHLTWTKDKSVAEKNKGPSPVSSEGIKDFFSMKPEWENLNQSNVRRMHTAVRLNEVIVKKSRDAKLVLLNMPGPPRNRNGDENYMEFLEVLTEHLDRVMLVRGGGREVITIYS
The data set can be described thus: FLIPR Tl+ flux assay, HEK-293 cells expressing KCC2. The format is cell-based. As for the experimental part:
A multi-tiered high-throughput screening assay was used, leveraging a proprietary library of 1.3 million small molecule compounds from AstraZeneca (Cambridge, UK) to identify chemical entities capable of activating KCC2. A single point concentration of 30 μM was used to identify potassium flux using an established thallium […] influx FLIPR assay as the primary read out in HEK-293 cells overexpressing KCC2 (Cardarelli et al., Nat. Med. 23, 1394-1396 (2017); Conway et al., J Biol Chem 292, 21253-21263 (2017); Lee et at, 2022, supra).
Cell Culture and biotinylation. […]
FLIPR TI Flux assay. HEK-293 cells were washed with HBSS, and then incubated with loading buffer containing TI sensitive fluorescent dye (https://www.moleculardevices.com), 20 μM bumetanide 20 μM ouabain and 2.5 mM probenecid for 1 h at room temperature (RT) under control conditions or with drugs in the dark using a FlexStation 3 microplate reader (Molecular Devices) and imaged […] for 30 min. Stimulus buffer was added containing 5 mM K^+/0.5 mM Tl^+ and cells were imaged every 1.5 over a 190 second time course The initial rate Tl^+ uptake (Relative Fluorescence Units (RFU) per second) was determined following addition of the stimulus buffer as outlined previously (Conway et at, 2017, supra) (Lee et at, 2022, supra). […]

For the molecule `C[C@@H]1CN(c2nc3c(c(Nc4ccc(C5CCCCC5)cc4)n2)COC3)CCO1` [Compound A, (R)—N-(4-cyclohexylphenyl)-2-(2-methylmorpholino)-5,7-dihydrofuro[3,4-d]pyrimidin-4-amine], in data set [1], the “gross effects on mouse behavior, open field” value is “no gross effects on mouse behavior”. Further, the “time of maximal concentration in brain” value in data set [2] (50 mg/kg SC) was 4 h. Besides, in data set [2] (50 mg/kg SC, 8h), the “brain level 8h after SC injection” value was “a level that was maintained 8h later”. Also, the “maximal concentration in brain” value in data set [2] (50 mg/kg SC, at 4 hr) is more than 600 nM. The molecule further yielded a concentration at 2 hr in data set [2] (mouse, brain, intraperitoneal, 50 mg/kg IP, 2 hr) of 2.67 ± 0.21 µM. In data set [2] (mouse, brain, intraperitoneal, 50 mg/kg IP, 4 hr), this molecule came in with a concentration at 4 hr of 4.1 ± 0.13 µM. Further, the concentration at 30 min in data set [2] (mouse, brain, read-out: concentration in brain) was determined as 7.6 ± 4.4 µM; in data set [2] (mouse, plasma, read-out: concentration in plasma), 41.5 ± 11.5 µM. Besides, the EC50 on KCC2 (HEK-293 cells expressing KCC2, 1% β-cyclodextrin vehicle, read-out: EC50 for KCC2 as measured by Tl+ flux) is 260 nM and 261 nM. Besides, the “maximum potentiation of KCC2” value at KCC2 (saturating concentration of 3 μM, 1% BCD vehicle) is 90%.

A word on the EC50: it is the concentration that produces a half-maximal response.
